{
  "source": "ChEMBL document CHEMBL6074646",
  "about": "“Carvacrol-conjugated 3-Hydroxybenzoic Acids: Design, Synthesis, cardioprotective potential against doxorubicin-induced Cardiotoxicity, and ADMET study” (Bioorg Med Chem Lett, 2024)",
  "key": {"[1]": {"test_system": "H9c2", "assay": "Cytotoxicity against rat H9C2 cells at 10 uM incubated for 48 hrs by cell counting assay", "type": "toxicity, cell-based", "conditions": "h9c2, 48 h"}, "[2]": {"test_system": "H9c2", "assay": "Protection against doxorubicin-induced cardiotoxicity in rat H9c2 cells assessed as increase in cell viability at 10 uM preincubated for 24 hrs followed by doxorubicin stimulation and measured after 24 hrs", "type": "functional, cell-based", "conditions": "time 48.0 hrs"}},
  "note": "Calls of active or inactive are those of the source. No cut-off for these calls is given here.",
  "data": [
    {"compound": "Cc1ccc(C(C)C)cc1OCCCOC(=O)c1cccc(O)c1", "values": [
      {"measurement": "Activity", "setting": "[1]", "result": "Non-toxic"}
    ]},
    {"compound": "Cc1ccc(C(C)C)cc1OCCCCOC(=O)c1cccc(O)c1", "values": [
      {"measurement": "Activity", "setting": "[1]", "result": "Non-toxic"},
      {"measurement": "Activity", "setting": "[2]", "result": "Active"}
    ]},
    {"compound": "Cc1cc(CO)c(C(C)C)cc1OCCCCOC(=O)c1cccc(O)c1", "values": [
      {"measurement": "Activity", "setting": "[1]", "result": "Non-toxic"},
      {"measurement": "Activity", "setting": "[2]", "result": "inactive"}
    ]},
    {"compound": "Cc1cc(CO)c(C(C)C)cc1OC(=O)COC(=O)c1cccc(O)c1", "values": [
      {"measurement": "Activity", "setting": "[1]", "result": "Non-toxic"},
      {"measurement": "Activity", "setting": "[2]", "result": "inactive"}
    ]},
    {"compound": "O=C(O)c1cccc(O)c1", "note": "[3-HYDROXYBENZOIC ACID]", "values": [
      {"measurement": "Activity", "setting": "[1]", "result": "Non-toxic"},
      {"measurement": "Activity", "setting": "[2]", "result": "inactive"}
    ]},
    {"compound": "Cc1ccc(C(C)C)cc1OCCOC(=O)c1cccc(O)c1", "values": [
      {"measurement": "Activity", "setting": "[1]", "result": "Non-toxic"}
    ]},
    {"compound": "Cc1cc(CO)c(C(C)C)cc1OC(=O)CCCOC(=O)c1cccc(O)c1", "values": [
      {"measurement": "Activity", "setting": "[1]", "result": "Non-toxic"},
      {"measurement": "Activity", "setting": "[2]", "result": "inactive"}
    ]},
    {"compound": "Cc1cc(CO)c(C(C)C)cc1OC(=O)CCOC(=O)c1cccc(O)c1", "values": [
      {"measurement": "Activity", "setting": "[1]", "result": "Non-toxic"},
      {"measurement": "Activity", "setting": "[2]", "result": "inactive"}
    ]},
    {"compound": "Cc1cc(CO)c(C(C)C)cc1OCCCOC(=O)c1cccc(O)c1", "values": [
      {"measurement": "Activity", "setting": "[1]", "result": "Non-toxic"},
      {"measurement": "Activity", "setting": "[2]", "result": "inactive"}
    ]},
    {"compound": "Cc1ccc(C(C)C)cc1OC(=O)CCCOC(=O)c1cccc(O)c1", "values": [
      {"measurement": "Activity", "setting": "[1]", "result": "Non-toxic"}
    ]},
    {"compound": "Cc1ccc(C(C)C)cc1OC(=O)COC(=O)c1cccc(O)c1", "values": [
      {"measurement": "Activity", "setting": "[1]", "result": "Non-toxic"}
    ]},
    {"compound": "Cc1cc(CO)c(C(C)C)cc1OCCOC(=O)c1cccc(O)c1", "values": [
      {"measurement": "Activity", "setting": "[1]", "result": "Non-toxic"},
      {"measurement": "Activity", "setting": "[2]", "result": "inactive"}
    ]},
    {"compound": "Cc1ccc(C(C)C)cc1O", "note": "[CARVACROL]", "values": [
      {"measurement": "Activity", "setting": "[1]", "result": "Non-toxic"},
      {"measurement": "Activity", "setting": "[2]", "result": "inactive"}
    ]},
    {"compound": "Cc1ccc(C(C)C)cc1OC(=O)CCOC(=O)c1cccc(O)c1", "values": [
      {"measurement": "Activity", "setting": "[1]", "result": "Non-toxic"}
    ]}
  ]
}
